# Laboratory results reported in US6852696B2, “Inhibitors of glycosaminoglycans” (The University of Texas System, priority 1999, dated 2005).
# Experiments:
# [1] = system: B16-F10 melanoma cells; experiment: Experimentally induced lung metastasis of i.v. infused B16-F10 melanoma cells; assay type: in vivo, C57BL/6 mice; conditions: simultaneous i.v. injection with B16-F10 cells
# Method: FIGS. 4A-C. Impact of Pep-1 on lung metastasis of melanoma. (FIG. 4A) B16-F10 melanoma cells were suspended (4×10^5 cells/ml) in PBS containing Pep-1 monomer (2 or 3 mg/ml) (circles) or 2% DMSO alone (triangles). C57BL/6 mice received i.v. injection of these cell suspensions (500 μl/animal) and were examined for survival. Data shown are the cumulative survival curves from four independent experiments (n=37 for Pep-1 and n=20 for PBS control). […] (FIG. 4B) B16-F10 melanoma cells (1×10^5 cells/animal) were s.c. injected into the back of C57BL/6 mice. Pep-1 or RP (40 μg/injection) was injected locally into the tumor inoculation sites 0. 3. and 6 days after tumor injection. Data shown are the means+/−s.e.m. (n=10) of tumor sizes and tumor weights measured 10 days after tumor inoculation. (FIG. 4C) B16-F10 melanoma cells (2×10^5 cells/well) were cultured in the presence of the indicated concentrations of Pep-1 (closed circles) or PR (open circles). Data shown are the means+/−s.e.m.(n=3) of ^3H-thymidine uptake at 24 hr.
# In the model, melanoma cells and Pep-1 (or random peptide control or PBS alone) were injected together intravenously into syngeneic C57BL/6 mice and lung metastasis was examined macroscopically and by following-up the survival of mice. […] The inventors will also examine the prophylactic and therapeutic potentials of multimeric Pep-1 formulations and other chemically modified Pep-1 derivatives using this animal model of melanoma metastasis.
# [2] = system: DO11.10 T cells; experiment: DO11.10 T cell proliferation triggered by splenic DC and OVA peptide (3H-thymidine uptake); assay type: cell-based, mice
# Method: FIGS. 7A-C. Impact of tetrameric LIP on cytokine production during antigen presentation. (FIG. 7A) XS52 DC (0.2×10^6 cells/well) were cultured in the presence or absence of the KLH-reactive CD4^+ Thl clone HDK-1 (0.2×10^6 cells/well) and/or KLH (100 μg/ml). Culture supernatants collected at 24 hrs were examined for the indicated cytokines by ELISA. Data shown are the means+/−s.e.m. from triplicate samples. (FIG. 7B) XS52 DC and HDK-1 T cells were co-cultured with KLH in the presence of the indicated concentrations of Pep-1. Culture supernatants collected at 24 hrs were examined for the indicated cytokines by ELISA. (FIG. 7C) CD4^+ T cells isolated from DO11.10 transgenic mice (5×10^4 cells/well) were co-cultured with the indicated numbers of splenic DC isolated from BALB/c mice and the OVA peptide (2 μg/ml) in the presence of 500 μg/ml of Pep-1 (open circles), RP (triangles), or DMSO alone (closed circles). Co-cultures of CD4^+ T cells and DC in the absence of OVA peptide served as a control (square). All the cultures were examined for ^3H-thymidine uptake on Day 3. […]
# FIGS. 9A-G. DC-associated HA and DC-dependent T cell proliferation. […] Statistically significant differences assessed by a two-tailed Student's t-test for comparing two groups or by analysis of variance (ANOVA) followed by LSD for multiple comparisons are indicated by asterisks (*P<0.05, **P<0.01). […]
# [3] = system: HA; conditions: co-pending application 60/126,475; cited from earlier work
# [4] = system: DC-associated HA; experiment: Binding of biotinylated peptide to DC surfaces; conditions: biotinylated form
# Method: FIGS. 8B-D. Synthesis and surface expression of HA by DC. (B) XS106 DC were labeled with ^3H-glucosamine and then examined for the incorporation of hyaluronidase-sensitive radioactivities (means+/−s.e.m.; n=5) into the indicated subcellular fractions. (C) XS106 DC were incubated with biotinylated Pep-1 or RP and then with PE-conjugated streptavidin (filed histograms) (Mummert et al. J. Exp. Med. 192:769-779, 2000) or bovine testis hyaluronidase. Baseline staining levels with PE-streptavidin alone are shown with open histograms. (D) The indicated DC preparations were examined for binding of biotinylated Pep-1 (filled) and RP (open). Peptide binding to splenic DC and bone marrow-DC was examined within the CD11c^+ populations.
# [5] = system: HA; conditions: co-pending application 60/126,475; cited from earlier work; remark: listed apart in the source
sequence,measurement,setting,value
GAHWQFNALTVR [Pep-1],survival of recipient animals,[1],prolonged the survival of recipient animals significantly
same,survival of recipient animals,[1]; listed as Pep-1 monomer,Statistically significant difference (p<0.01 by the log-rank test)
same,extent of lung metastasis,[1]; vs RP control,reduced the extent of lung metastasis significantly
same,"inhibition of DC-dependent, antigen-specific T cell proliferation",[2]; 300 μM (FIG. 9B),inhibited
same,inhibition of activation of naive CD4+ T cells by splenic DC,[2]; 500 μg/ml (FIG. 7C),inhibited the activation of immunologically naive CD4+ T cells
same,inhibition of leukocyte adhesion to HA substrates,[3],inhibited leukocyte adhesion to HA substrates almost completely
same,"binding to other DC preparations (XS52 DC, splenic DC, bone marrow-derived DC)",[4],bound to all other tested DC preparations
same,binding to surfaces of XS106 DC,[4],bound to the surfaces of XS106 DC
same,binding to DC after hyaluronidase pretreatment,[4]; hyaluronidase pretreatment of DC,abolished almost completely
same,binding to HA,[5],"specific binding to soluble, immobilized, and cell-associated forms of HA"
